Measurements published in doi:10.1101/2024.12.15.628575v1 (biorxiv, 2024).
Where two headings read alike, the source gives them in different places.

Columns and labels:
human CPT1a [1] = target: T1, human CPT1a (Homo sapiens, UniProt P50416); test: DTNB colorimetric CoA release assay, […] nm, transfected Expi293 pellet extract; assay type: biochemical
T1 sequence (P50416 2-773): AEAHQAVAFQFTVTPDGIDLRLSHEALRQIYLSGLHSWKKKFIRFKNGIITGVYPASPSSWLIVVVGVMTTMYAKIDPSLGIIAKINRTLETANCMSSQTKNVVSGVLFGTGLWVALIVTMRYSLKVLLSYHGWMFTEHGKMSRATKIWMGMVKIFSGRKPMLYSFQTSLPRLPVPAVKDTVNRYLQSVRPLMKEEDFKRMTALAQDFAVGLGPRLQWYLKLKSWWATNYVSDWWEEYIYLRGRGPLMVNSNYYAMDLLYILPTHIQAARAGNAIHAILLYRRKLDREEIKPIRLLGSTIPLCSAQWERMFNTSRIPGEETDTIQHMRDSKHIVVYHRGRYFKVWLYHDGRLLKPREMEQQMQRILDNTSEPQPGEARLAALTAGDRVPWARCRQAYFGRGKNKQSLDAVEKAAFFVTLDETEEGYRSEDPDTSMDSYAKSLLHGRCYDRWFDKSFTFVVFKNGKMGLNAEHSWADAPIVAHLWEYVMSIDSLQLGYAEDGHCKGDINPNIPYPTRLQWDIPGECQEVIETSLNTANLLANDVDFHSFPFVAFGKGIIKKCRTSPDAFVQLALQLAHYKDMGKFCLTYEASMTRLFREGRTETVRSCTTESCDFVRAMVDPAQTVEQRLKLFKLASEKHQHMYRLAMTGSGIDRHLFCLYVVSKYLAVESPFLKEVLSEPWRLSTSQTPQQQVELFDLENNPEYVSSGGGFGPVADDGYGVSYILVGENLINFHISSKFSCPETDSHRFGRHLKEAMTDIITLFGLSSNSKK

human CPT1a [2] = target: T1, human CPT1a; test: as above; assay type: cell-based

| IC50 (human CPT1a [1]) [µM] | IC50 (human CPT1a [2]) [µM] | Structure (SMILES) |
| --- | --- | --- |
| 179 | – | CN(C)CCCN1c2ccccc2Sc2ccc(Cl)cc21 [chlorpromazine] |
| – | 319 | C1CCC(C(CC2CCCCN2)C2CCCCC2)CC1 (stereo not drawn) [perhexiline] |
| 4710 | – | O=C(O)[C@@]1(CCCCCCOc2ccc(Cl)cc2)CO1 [etomoxir] |
